A short description of this data set: gradient 5% acetonitrile 3 min, to 50% in 2 min, to 85% in 15 min, held 3 min, 100 µL/min. Conditions: column: Zorbax Extend-C18 2.1 x 50 mm; eluents: water / acetonitrile, 0.1% formic acid. An outline of the steps:
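Data were gathered over 3 months by HPLC coupled to a quadrupole time-of-flight mass spectrometer, operated in positive and negative ionization mode. Mixtures of ~100 pure standards ran on a Zorbax Extend-C18 column (2.1 × 50 mm, 1.8 μm) at 100 μL/min, with water and acetonitrile each containing 0.1% formic acid and dead and dwell volumes of 40 μL and 900 μL. Retention time was read from adduct peaks picked by computer and checked manually.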
Consider `Cc1ccc(Cl)cc1NC(=O)N1CCC(n2c(-c3ccco3)nc3cccnc32)C1` (centres undefined), for which the RP-LC retention time is 835 s.

`CN(C)c1ccc(-c2nc3cnccn3c2Nc2ccc(Br)cc2)cc1` registered an RP-LC retention time of 894 s.

On to `O=C(Cc1cccs1)N1CCCC1c1cccc(F)c1` (centres undefined), for which the RP-LC retention time came out at 817 s.

`CC(C)N1CCn2c(nc3cc(C(=O)NCc4ccccc4C(F)(F)F)ccc32)C1=O` registered an RP-LC retention time of 768 s.

As for `CC(C)C(=O)NCc1csc(C2CCN(C(=O)C3CCC3)CC2)n1`, the RP-LC retention time amounted to 876 s.

Compound `COc1ccc(-c2nnc(COc3ccc(NC(=O)c4ccnn4C)cc3)o2)cc1` came in with an RP-LC retention time of 790 s.

For the compound `Cc1nnc(N2CCCC(C(=O)NCc3ccc(F)cc3)C2)c2nn(-c3ccccc3)c(C)c12` (centres undefined), the RP-LC retention time came to 720 s.

Take `CC(NC(=O)C1(c2ccc(NS(C)(=O)=O)cc2)CCCCC1)c1ccc(F)cc1` (centres undefined): the RP-LC retention time was determined as 952 s.

With `CCCNS(=O)(=O)c1cc(-c2[nH]ncc2C(=O)N2CCOCC2)oc1C`, the RP-LC retention time came out at 662 s.

Consider `O=C(c1cccc(Cl)c1)N1CCN(c2cc(-c3cccnc3)[nH]n2)CC1`, for which the RP-LC retention time was 621 s.

In the case of `CSc1ccc(NC(=O)Nc2c(-c3ccncc3)nc3ccccn23)cc1`, the RP-LC retention time is 618 s.

Take `COc1c(C(=O)NC(C)C)sc2ccc(Cl)cc12`: the RP-LC retention time is 1060 s.

In turn, `COc1ccc(-c2nnc(Cc3nc(-c4cccc(Cl)c4)no3)o2)cc1` came in with an RP-LC retention time of 1020 s.

Compound `CNc1nc(NCc2ccc(NC(=O)c3ccc(F)cc3)cc2)c2ccccc2n1` returned an RP-LC retention time of 692 s.

For the compound `O=C(CSc1ccc(N2CCCC(C(=O)NC3CC3)C2)nn1)Nc1ccc2c(c1)OCCO2` (centres undefined), the RP-LC retention time is 619 s.

Regarding `CS(=O)(=O)N1CCCC(C(=O)NC2CC2)CCNC(=O)CC1` (centres undefined), the RP-LC retention time was determined as 816 s.

The compound `CCNC(=O)C1CCCN(c2nc3ncn(CC(=O)Nc4c(C)cccc4CC)c(=O)c3s2)C1` (centres undefined) showed an RP-LC retention time of 703 s.

Take `O=C(Cn1ccn2nc(-c3ccccc3)c(CO)c2c1=O)Nc1ccccc1C(F)(F)F`: the RP-LC retention time came to 830 s.

Compound `CCN1C(=O)C2CC3(CCN(C(=O)Nc4ccc5c(c4)OCCO5)CC3)CN2C1=O` (centres undefined) showed an RP-LC retention time of 706 s.

`COc1ccc(NC(=O)C2CN(S(=O)(=O)c3cccnc3)CC23CCCCC3)cc1` (centres undefined) came in with an RP-LC retention time of 890 s.

Take `CCCn1cc(CCNS(=O)(=O)c2ccccc2F)c2cccnc21`: the RP-LC retention time was 820 s.

`COc1ccc(CCN2C(=O)CC(Sc3ccccc3C(=O)O)C2=O)cc1OC` (centres undefined) showed an RP-LC retention time of 703 s.

As for `COc1cc(CCC(=O)N2CCNc3ccccc3C2)cc(OC)c1OC`, the RP-LC retention time worked out at 710 s.

Take `O=C(NC1CCN(c2cc(-c3ccc(Cl)cc3)[nH]n2)C1)c1ccccn1` (centres undefined): the RP-LC retention time came to 751 s.

For `CCc1nc2ccc(-c3noc(CNS(=O)(=O)c4ccccc4)n3)cc2n1CC`, the RP-LC retention time is 653 s.

Consider `O=C(Cn1ccc2ccc(N3CCCCCC3)nc21)N1CCC(N2CCCCC2)CC1`, for which the RP-LC retention time turned out to be 709 s.

The compound `Cc1cc(OCC(=O)Nc2ccc(F)c(Cl)c2)nc(N2CCN(c3ccccc3)CC2)n1` returned an RP-LC retention time of 956 s.

`Cn1cc(-c2ccncc2)cc1C(=O)NCc1ccc(F)cc1F` returned an RP-LC retention time of 648 s.

Turning to `O=C(c1cc2c(s1)CCCC2)N1CCc2[nH]cnc2C12CCCCC2`, the RP-LC retention time amounted to 692 s.

In the case of `O=C(NCc1c(F)cccc1Cl)C(=O)c1c[nH]c2ccccc12`, the RP-LC retention time was 931 s.

With `O=C1CCc2cc(NC(=O)C3CC3)ccc2N1`, the RP-LC retention time is 599 s.

On to `Cc1oc(-c2ccccc2)nc1Cn1ccn2nc(-c3cccs3)cc2c1=O`, for which the RP-LC retention time was determined as 1060 s.

For `CCOC(=O)c1c(C)c(CCC(=O)NCCN2CCOCC2)c(C)n1C`, the RP-LC retention time was found to be 622 s.

`COc1cccc(C(O)CN2CCN(c3ccc(C)cc3)CC2)c1` (centres undefined) registered an RP-LC retention time of 677 s.

With `Cc1nc(-c2csc(S(=O)(=O)N3CCCC(C(=O)Nc4c(C)cccc4C)C3)c2)no1` (centres undefined), the RP-LC retention time worked out at 1060 s.

On to `Cc1nc(C)c(-c2ccc(SCC(=O)Nc3ccc4c(c3)OCCO4)nn2)s1`, for which the RP-LC retention time was 690 s.

Turning to `O=C1COc2ccc(Cl)cc2N1Cc1nc(-c2ccc(-c3csc(C4CC4)n3)cc2)no1`, the RP-LC retention time was 1310 s.

In turn, `Cn1c(CCNC(=O)c2cccc(C(F)(F)F)c2)nc2cccnc21` returned an RP-LC retention time of 664 s.

For the compound `CCn1cc(-c2nc(C)c(C(=O)Nc3cccc(C(=O)OC)c3)s2)c2cccnc21`, the RP-LC retention time is 993 s.

The compound `O=C1CCN(C2OC(CO)C(O)C2O)C(=O)N1` (centres undefined) gave an RP-LC retention time of 1040 s.

`CCc1nc2cc(N3CCC(C(=O)NC4CCCC4)CC3)cnc2nc1CC` displayed an RP-LC retention time of 785 s.

The compound `Cc1ccc(Cn2nc3ccc(S(=O)(=O)N4CCSCC4)cn3c2=O)cc1C` had an RP-LC retention time of 1000 s.

Turning to `CCN1C(=O)c2cccnc2Sc2cc(CNC(=O)c3ccccc3F)ccc21`, the RP-LC retention time amounted to 702 s.

In turn, `O=C(Nc1ccc(Cl)c(Cl)c1)N1CCN(c2ncc(C(F)(F)F)cc2Cl)CC1` registered an RP-LC retention time of 940 s.

`Cn1c(=O)c2cc(C(=O)Nc3ccccc3)cnc2n(-c2ccccc2)c1=O` had an RP-LC retention time of 862 s.

`CCCCNC(=O)C1CCCN(c2nnc(C)c3c(C)n(-c4ccc(C)cc4)nc23)C1` (centres undefined) had an RP-LC retention time of 733 s.

Take `Cc1ccc(-c2nc(-c3ccc(S(=O)(=O)N4CCC(C(=O)N5CCCC5)CC4)cc3)no2)cc1F`: the RP-LC retention time is 1110 s.

In turn, `O=C(c1ccc[nH]1)N1CCN(C(=O)c2ccco2)CC1` came in with an RP-LC retention time of 600 s.

As to `CCNc1nc(C)cc(N2CCN(S(=O)(=O)c3cccc(Cl)c3)CC2)n1`, the RP-LC retention time came to 725 s.

`COc1ccc(CN2C(=O)C3(CCOCC3)CC2c2nnnn2C(C)(C)C)c(OC)c1` (centres undefined): the RP-LC retention time amounted to 734 s.

As for `O=C(NCCC1=CCCCC1)C(=O)NCC(O)c1ccc(C(F)(F)F)cc1` (centres undefined), the RP-LC retention time was 949 s.

For `COc1cccc(Oc2nccnc2N2CCC(C(=O)NCCC3=CCCCC3)CC2)c1`, the RP-LC retention time worked out at 1050 s.

For `CCc1cccc(C)c1NC(=O)CCC(=O)N1CCOc2ccccc21`, the RP-LC retention time was determined as 854 s.

On to `O=S(=O)(c1ccc(F)cc1)N1CC(F)(F)C[C@H]1CN1CCc2ccccc2C1`, for which the RP-LC retention time worked out at 738 s.

`CCCn1c(=O)c(N2CCN(C(=O)C3CC3)CC2)nc2ccccc21` showed an RP-LC retention time of 912 s.

Turning to `COc1ccc(-n2ccn3cc(-c4ccccc4)nc3c2=O)cc1Cl`, the RP-LC retention time was 873 s.

For the compound `COc1ccc(S(=O)(=O)N2CCN(c3cc(C)nc(N4CCCC4)n3)CC2)cc1Cl`, the RP-LC retention time was determined as 754 s.

`O=C(Nc1ccc2c(c1)OCO2)c1nnc(C(=O)N2CCCC(C(=O)NC3CCCC3)C2)s1` (centres undefined) came in with an RP-LC retention time of 860 s.

As for `Cn1nc(-c2nc(C3CC3)no2)c2c1CCN(C(=O)c1ccco1)C2`, the RP-LC retention time came to 744 s.

`COc1ccc(S(=O)(=O)N2CCc3c(c(-c4nnc(-c5ccccc5)o4)nn3C)C2)cc1` registered an RP-LC retention time of 909 s.

As for `CCc1noc(NC(C)=O)c1-c1ccc(OC)c(S(=O)(=O)Nc2ccc(Cl)cc2C)c1`, the RP-LC retention time stood at 841 s.

In turn, `CCc1cc(=O)n(CC(=O)Nc2ccccc2F)c(-c2cccc(F)c2)n1` gave an RP-LC retention time of 1170 s.

The compound `CCN(CC)CCCn1c(C)cc2c(c1=O)C(c1ccc(Cl)cc1)C(C#N)=C(N)O2` (centres undefined) registered an RP-LC retention time of 658 s.

`CN(Cc1ccccc1)C(=O)Cn1cccc1-c1nnc(-c2ccccc2)o1` gave an RP-LC retention time of 940 s.

As to `CCCN1CCN(C(=O)c2nc(N3CCSCC3)c3cnn(C)c3n2)CC1`, the RP-LC retention time is 576 s.

`Cc1nc(-c2cccc(F)c2)sc1C(=O)N(C)C`: the RP-LC retention time is 799 s.

Turning to `COc1ccc(C2CC(=O)N(c3ccc(C)c(Cl)c3)C(=O)C2)cc1OC`, the RP-LC retention time came out at 652 s.

`C=CCN1C(=O)C(C)(C)COc2cc(NS(=O)(=O)C3CCCCC3)ccc21` returned an RP-LC retention time of 932 s.

As for `CC(=O)Cc1nsc(NC(=O)c2ccc(-c3cccc(Cl)c3)o2)n1`, the RP-LC retention time turned out to be 866 s.

Compound `COc1ccc(S(=O)(=O)Nc2cc(-c3cn4cccc(C)c4n3)ccc2C)cc1` yielded an RP-LC retention time of 664 s.

Regarding `O=C(Cc1nnc(-c2ccc3ncccc3c2)o1)NC1CCCCCC1`, the RP-LC retention time was 807 s.

Consider `Cc1ccc2[nH]cc(CCNC(=O)CN3C(=O)CSc4cccn4-c4ccccc43)c2c1`, for which the RP-LC retention time was 954 s.

For the compound `COCCn1c(CCCC(=O)N2CCN(c3ccccn3)CC2)nc2cccnc21`, the RP-LC retention time was determined as 562 s.

For the compound `CCN1c2ccc(C)cc2C(=O)NC12CCN(C(=O)c1ccccc1OC)CC2`, the RP-LC retention time stood at 786 s.

Take `Cc1ccc(-c2nnc(CC(=O)NC3CCCC3)o2)cc1`: the RP-LC retention time turned out to be 797 s.

`Cc1ccc(Cn2nc3ccc(S(=O)(=O)N4CCCCC4)cn3c2=O)cc1`: the RP-LC retention time was 952 s.

`CCn1ccc2sc(C)c(C(=O)N3CCN(c4ccc(F)cc4)CC3)c2c1=O` gave an RP-LC retention time of 808 s.

Compound `O=c1ccc(-c2ccccc2)nn1Cc1nc(-c2cccc(Cl)c2)no1` came in with an RP-LC retention time of 1100 s.

In the case of `O=S(=O)(c1cccs1)N1CCc2nc(-c3ccc(Cl)cc3)ncc2C1`, the RP-LC retention time came to 1150 s.

These data come from the METLIN SMRT retention time set (Domingo-Almenara et al. 2019).
